The numbers were not newly measured in PubChem BioAssay AID1259409 (Chemical Carcinogenesis Research Information System (CCRIS), 2018), which cites them from elsewhere.

The test system of the data set is rodent chemically induced tumor inhibition, incidence and multiplicity. Kind of data set: CCRIS tumor inhibitor studies.

With `CC1=C(/C=C/C(C)=C/C=C/C(C)=C/C=C/C=C(C)/C=C/C=C(C)/C=C/C2=C(C)CCCC2(C)C)C(C)(C)CCC1`, the “tumour outcome (control, treated, inhibition, significance)” value runs as follows: (Carcinogen: 7,12-DIMETHYLBENZ[A]ANTHRACENE, 57-97-6, Dose [Inhibitor]: 0, 400 NMOL IN 200 µL ACETONE 2/WK BEGINNING 1 WK POST CARCINOGEN DOSE APPLIED SIMULTANEOUSLY WITH PROMOTER FOR 20 WK (S, Route [Inhibitor]: DERMAL, Species: MOUSE, Strain/Sex: ICR/?, Target Tissue: Type of Lesion: SKIN: PAPILLOMA, Dose [Carcinogen]: 100 UG ONCE, Promoter: 12-O-TETRADECANOYLPHORBOL-13-ACETATE, 16561-29-8) 69%, 25%, 64%, not calculated; (Carcinogen: 7,12-DIMETHYLBENZ[A]ANTHRACENE, 57-97-6, Dose [Inhibitor]: 0, 1430 IU/KG IN 100 µL PEANUT OIL 5 D/WK BEGINNING 1 WK POST CARCINOGEN DOSE AND CONTINUING FOR DURATION OF STUDY (STUD, Route [Inhibitor]: GAVAGE, Species: MOUSE, Strain/Sex: HRA/SKH/FEMALE, Target Tissue: Type of Lesion: SKIN: CARCINOMA, Dose [Carcinogen]: 10 NMOL IN 50 µL ACETONE ONCE) 7/25 (28%), 8/37 (22%), 21%, not calculated; (Carcinogen: 7,12-DIMETHYLBENZ[A]ANTHRACENE, 57-97-6, Dose [Inhibitor]: 140 UG (1.5 MG/KG BW) IN 0.4 ML MINERAL OIL 3/WK FOR 28 WK (STUDY DURATION: 28 WK), Route [Inhibitor]: ORAL, Species: HAMSTER, Strain/Sex: SYRIAN/MALE, Target Tissue: Type of Lesion: SKIN: CARCINOMA, Dose [Carcinogen]: 0.1% IN HEAVY MINERAL OIL APPLIED TO BUCCAL POUCH 3/WK FOR 28 WK, Promoter: NONE USED) 20/20 (100%), 11/20 (55%), 45%, not calculated; (Carcinogen: 7,12-DIMETHYLBENZ[A]ANTHRACENE, 57-97-6, Dose [Inhibitor]: 250 MG/KG IN DIET BEGINNING 6 WK PRIOR TO CARCINOGEN DOSE AND CONTINUING FOR 21-22 WK POST CARCINOGEN DOSE (STUDY DURATI, Route [Inhibitor]: ORAL, Species: RAT, Strain/Sex: SPRAGUE-DAWLEY/MALE, Target Tissue: Type of Lesion: SALIVARY GLAND: TUMOR, Dose [Carcinogen]: 1 MG IN 20 µL OLIVE OIL INJECTED INTO SUBMANDIBULAR GLAND ONCE, Promoter: NONE USED) 20/28 (71%), 20/30 (67%), 6%, not significant; (Carcinogen: BENZO[A]PYRENE, 50-32-8, Dose [Inhibitor]: 0, 0.5 G/G OF DIET FOR 6 WK (STUDY DURATION: 9 WK), Route [Inhibitor]: ORAL, Species: MOUSE, Strain/Sex: NIGP(S)/FEMALE, Target Tissue: Type of Lesion: LUNG: ADENOMA, Dose [Carcinogen]: 0.5 MG INJECTED IN THE SCAPULAR REGION OF NEWBORN MICE ONCE, Promoter: NONE USED) 56%, 38%, 32%, not calculated; (Carcinogen: BENZO[A]PYRENE, 50-32-8, Dose [Inhibitor]: 0, 0.5 G/G OF DIET FOR 6 WK (STUDY DURATION: 9 WK), Route [Inhibitor]: ORAL, Species: MOUSE, Strain/Sex: NIGP(S)/MALE, Target Tissue: Type of Lesion: LUNG: ADENOMA, Dose [Carcinogen]: 0.5 MG INJECTED IN THE SCAPULAR REGION OF NEWBORN MICE ONCE, Promoter: NONE USED) 37%, 38%, -3%, not calculated. In addition, the “tumour outcome (control, treated, inhibition, significance)” value runs as follows: (Carcinogen: BENZO[A]PYRENE, 50-32-8, Dose [Inhibitor]: 0, 4.7 MICROMOLAR/D IN 0.1 ML PEANUT OIL BEGINNING 2 WK PRIOR TO CARCINOGEN TREATMENT AND CONTINUING TO 2 WK POST CARCIN, Route [Inhibitor]: GAVAGE, Species: MOUSE, Strain/Sex: SWISS/FEMALE, Target Tissue: Type of Lesion: FORESTOMACH: TUMOR, Dose [Carcinogen]: 1 MG 2/WK IN 0.1 ML PEANUT OIL FOR 4 WK, Promoter: NONE USED) 20/20 (100%), 3/20 (15%), 85%, p<0.001; (Carcinogen: BENZO[A]PYRENE, 50-32-8, Dose [Inhibitor]: 2.5 MG/D IN DIET FOLLOWED 1 MO LATER BY 25 MG/0.250 KG BW BY GAVAGE 2/WK 2 HR PRIOR TO CARCINOGEN DOSE (STUDY DURATION:, Route [Inhibitor]: ORAL, GAVAGE, Species: MOUSE, Strain/Sex: SWISS/FEMALE, Target Tissue: Type of Lesion: SKIN: PAPILLOMA, SQUAMOUS EPITHELIOMA, Dose [Carcinogen]: 100 UG IN ACETONE 2/WK BEGINNING 1 MO AFTER AGENT DOSE AND CONTINUING FOR DURATION OF STUDY, Promoter: NONE USED) “@65%, @55%, 15%, p<0.05”; (Carcinogen: BENZO[A]PYRENE, 50-32-8, UV IRRADIATION, Carcinogen: BENZO[A]PYRENE, 50-32-8, UV IRRADIATION, Dose [Inhibitor]: 2.5 MG/D IN DIET FOLLOWED 1 MO LATER BY 25 MG/0.250 KG BW BY GAVAGE 2/WK GIVEN 2 HR PRIOR TO CARCINOGEN DOSE (STUDY DURA, Route [Inhibitor]: ORAL, GAVAGE, Species: MOUSE, Strain/Sex: SWISS/FEMALE, Target Tissue: Type of Lesion: SKIN: PAPILLOMA, SQUAMOUS EPITHELIOMA, Dose [Carcinogen]: 100 UG IN ACETONE 2/WK BEGINNING 1 MO AFTER AGENT DOSE AND CONTINUING FOR DURATION OF STUDY PLUS UV IRRADIATION (5890 ER, Promoter: NONE USED) “@93%, @40%, @57%, not calculated”; (Carcinogen: DIESEL EXHAUST PARTICLES, Dose [Inhibitor]: 0, 0.02% IN BASAL DIET FOR DURATION FO STUDY (STUDY DURATION: 12 MO), Route [Inhibitor]: ORAL, Species: MOUSE, Strain/Sex: ICR/MALE, Target Tissue: Type of Lesion: LYMPHATIC SYSTEM: LYMPHOMA, Dose [Carcinogen]: 0.2 MG 1/WK FOR 10 WK, Promoter: NONE USED) 6/29 (21%), 5/30 (17%), 20%, not calculated; (Carcinogen: DIESEL EXHAUST PARTICLES, Dose [Inhibitor]: 0, 0.02% IN BASAL DIET FOR DURATION OF STUDY (STUDY DURATION: 12 MO), Route [Inhibitor]: ORAL, Species: MOUSE, Strain/Sex: ICR/ MALE, Target Tissue: Type of Lesion: LYMPHATIC SYSTEM: LYMPHOMA, Dose [Carcinogen]: 0.1 MG 1/WK FOR 10 WK, Promoter: NONE USED) 3/29 (10%), 2/30 (7%), 30%, not calculated; (Carcinogen: DIESEL EXHAUST PARTICLES, Dose [Inhibitor]: 0, 0.02% IN BASAL DIET FOR DURATION OF STUDY (STUDY DURATION: 12 MO), Route [Inhibitor]: ORAL, Species: MOUSE, Strain/Sex: ICR/MALE, Target Tissue: Type of Lesion: LUNG: TUMOR, Dose [Carcinogen]: 0.05 MG 1/WK FOR 10 WK, Promoter: NONE USED) 9/30 (30%), 6/30 (20%), 33%, not calculated. Also, the “tumour outcome (control, treated, inhibition, significance)” value runs as follows: (Carcinogen: DIESEL EXHAUST PARTICLES, Dose [Inhibitor]: 0, 0.02% IN BASAL DIET FOR DURATION OF STUDY (STUDY DURATION: 12 MO), Route [Inhibitor]: ORAL, Species: MOUSE, Strain/Sex: ICR/MALE, Target Tissue: Type of Lesion: LUNG: TUMOR, Dose [Carcinogen]: 0.1 MG 1/WK FOR 10 WK, Promoter: NONE USED) 9/29 (31%), 10/30 (33%), -6%, not calculated; (Carcinogen: DIESEL EXHAUST PARTICLES, Dose [Inhibitor]: 0, 0.02% IN BASAL DIET FOR DURATION OF STUDY (STUDY DURATION: 12 MO), Route [Inhibitor]: ORAL, Species: MOUSE, Strain/Sex: ICR/MALE, Target Tissue: Type of Lesion: LUNG:TUMOR, Dose [Carcinogen]: 0.2 MG 1/WK FOR 10 WK, Promoter: NONE USED) 7/29 (24%), 8/30 (27%), -13%, not calculated; (Carcinogen: DIESEL EXHAUST PARTICLES, Dose [Inhibitor]: 0, 0.02% IN BASAL DIET FOR DURATION OF STUDY (STUDY DURATION: 12 MO), Route [Inhibitor]: ORAL, Species: MOUSE, Strain/Sex: ICR/MALE, Target Tissue: Type of Lesion: LYMPHATIC SYSTEM: LYMPHOMA, Dose [Carcinogen]: 0.05 MG 1/WK FOR 10 WK, Promoter: NONE USED) 3/30 (10%), 4/30 (13%), -30%, not calculated; (Carcinogen: DIESEL EXHAUST PARTICLES, Dose [Inhibitor]: 0, 0.02% IN HIGH FAT DIET FOR DURATION OF STUDY (STUDY DRUATION : 12 MO), Route [Inhibitor]: ORAL, Species: MOUSE, Strain/Sex: ICR/MALE, Target Tissue: Type of Lesion: LYMPHATIC SYSTEM: LYMPHOMA, Dose [Carcinogen]: 0.05 MG 1/WK FOR 10 WK, Promoter: NONE USED) 5/30 (17%), 5/30 (17%), 0%, not significant; (Carcinogen: DIESEL EXHAUST PARTICLES, Dose [Inhibitor]: 0, 0.02% IN HIGH FAT DIET FOR DURATION OF STUDY (STUDY DURATION: 12 MO), Route [Inhibitor]: ORAL, Species: MOUSE, Strain/Sex: ICR/MALE, Target Tissue: Type of Lesion: LUNG: TUMOR, Dose [Carcinogen]: 0.05 MG 1/WK FOR 10 WK, Promoter: NONE USED) 12/30 (40%), 9/30 (30%), 25%, not calculated. In addition, the outcome (Carcinogen: 7,12-DIMETHYLBENZ[A]ANTHRACENE, 57-97-6, Dose [Inhibitor]: 0, 1430 IU/KG IN 100 µL PEANUT OIL 5 D/WK BEGINNING 1 WK POST CARCINOGEN DOSE AND CONTINUING FOR DURATION OF STUDY (STUD, Route [Inhibitor]: GAVAGE, Species: MOUSE, Strain/Sex: HRA/SKH/FEMALE, Target Tissue: Type of Lesion: SKIN: PAPILLOMA, Dose [Carcinogen]: 10 NMOL IN 50 µL ACETONE ONCE) is 97%, 77%, 21%, not calculated at 20 wk; 68%, 52%, 24%, not calculated at 40 wk.
